Consider 24 molecules from patent US10472346B2, “Potent gamma-secretase modulators” (The General Hospital Coporation, priority 2014, dated 2019).

“Also recorded” adds a separate entry of the source. Some results are limits rather than exact numbers.

One data set relates to Aβ42. Description: Aβ42 IC50 assay (SHSYSY-APP cell-based screening, UCSD sandwich Aβ42 ELISA). From the text: FIG. 8: Representative concentration response curves of Compound 1 using our primary and orthogonal medium throughput SHSYSY-APP cell-based screening assays (10). Compounds are first screened two times in triplicate in our UCSD sandwich Aβ42 ELISA on sequential days and the average of the two assays must be within 3-fold of each other before being entered into the CDD relational database. The UCSD sandwich ELISA assay can easily handle 20 compounds per week. Compounds with Aβ42 IC50 values <100 nM continue through the testing funnel. The Z′ score and the % CV for the UCSD Aβ42 sandwich ELISA assay are 0.8 and 4, respectively. For the Meso Scale triplex assay the Z′ scores are 0.7, 0.9 and 0.6 Aβ42, Aβ40 and Aβ38, respectively and the % CV's are 7, 2 and 1 for Aβ42, Aβ40 and Aβ38, respectively. Aβ total peptides are measured using a sandwich ELISA.
Tabular Results of A1142 Assays Conducted on Compounds of Examples 5-102. Assays are Aβ42 IC50 (nM).

The test system of another data set is Notch processing. Description: Notch processing in transfected H4-APP751 cells (Western blot, Myc antibody, NICD). It counts as cell-based, human. As to conditions: 24 hrs; for Notch processing (NICD levels, Western blot): H4-APP751 cells transfected with the Notch NδED construct, 40 nM, 200 nM, 1000 nM, and 5000 nM. The text has this: Cells were harvested 48 hrs post transfection and applied to Western blotting analysis. Myc antibody was utilized to assess the NAED and NICD tagged with Myc on their N-termini. β-Actin was utilized as the loading control.
Cells were harvested 48 hrs post transfection and subjected to Western blotting analysis. Myc antibody was utilized to assess the NδED and NICD tagged with Myc on their N-termini.
Stable H4 human neuroglioma cells over-expressing human APP751, or H4-APP751 cells, were transfected with the NAE construct, and then treated with different concentrations SGSM Compound 1 (Lanes 1-6) or DAPT (Lanes 7-10) for another 24 hrs and are shown in FIG. 9. Cells were harvested 48 hrs post transfection and applied to Western blotting analysis. Myc antibody was utilized to assess the NAED and NICD tagged with Myc on their N-termini β-Actin was utilized as the loading control.
Stably-transfected H4 human neuroglioma cells over-expressing human APP751 (H4-APP751) cells, were transfected with the Notch NδED construct, and then treated with vehicle, or different doses of GSMs (40 nM, 200 nM, 1000 nM, and 5000 nM) for 24 hrs. Cells were harvested 48 hrs post transfection and subjected to Western blotting analysis.

What is called IC50 is the point on the concentration scale where inhibition reaches its midpoint. A word on the melting point: it is the temperature of the solid-liquid transition. On to `COc1nc(-c2cc(C)c(N[C@@H]3C[C@H]3c3ccccc3)nn2)ccc1-n1cnc(C)c1` (racemic) [Example 72, (+/−)-trans-6-(6-methoxy-5-(4-methyl-1H-imidazol-1-yl)pyridin-2-yl)-4-methyl-N-(2-phenylcyclopropyl)pyridazin-3-amine], for which the melting point was 99 to 102 °C. The molecule also gave an IC50 with Aβ42 of 0.0071 µM. Take `COc1nc(-c2ccc(N[C@@H](C)c3ccc(F)cc3)nn2)ccc1-n1cnc(C)c1` [Compound 2, (S)—N-(1-(4-Fluorophenyl)ethyl)-6-(6-methoxy-5-(4-methyl-1H-imidazol-1-yl)pyridin-2-yl)pyridazin-3-amine]: the melting point lay in the range of 96 to 102 °C.

On to `C[C@H](NC(=O)Cc1cc(F)cc(F)c1)C(=O)N[C@H](C(=O)OC(C)(C)C)c1ccccc1` [DAPT, reference compound], for which, in the data set with Notch processing (H4-APP751 cells transfected with the NAE construct, different concentrations), the “Notch processing (NICD, Western blot)” value is recorded as “significantly inhibits Notch processing”. The “Notch processing (NICD levels, Western blot)” value in the data set with Notch processing is given as “significantly inhibits Notch processing”. `COc1nc(-c2cc(C(C)C)c(NCc3ccc(F)cc3)nn2)ccc1-n1cnc(C)c1` [Example 13, N-(4-fluorobenzyl)-4-isopropyl-6-(6-methoxy-5-(4-methyl-1H-imidazol-1-yl)pyridin-2-yl)pyridazin-3-amine] yielded a melting point of 245 to 246 °C. In the data set on Aβ42, this molecule yielded a concentration for half-maximal inhibition (IC50) of 0.021 µM. With `COc1nc(-c2ccc(N)nn2)ccc1-n1cnc(C)c1` [Example 24A, 6-(6-Methoxy-5-(4-methyl-1H-imidazol-1-yl)pyridin-2-yl)pyridazin-3-amine], the melting point is > 250 °C.

Consider `COc1nc(-c2ccc(NC(=O)c3ccc(F)cc3)nn2)ccc1-n1cnc(C)c1` [Example 24B, 4-Fluoro-N-(6-(6-methoxy-5-(4-methyl-1H-imidazol-1-yl)pyridin-2-yl)pyridazin-3-yl)benzamide], for which the melting point is > 250 °C. Moreover, the concentration for half-maximal inhibition (IC50) with Aβ42 is > 10 µM. On to `COc1nc(-c2ccc(NCc3ccc(F)cc3)nn2)ccc1-n1cnc(C)c1` [Example 26, N-(4-fluorobenzyl)-6-(6-methoxy-5-(4-methyl-1H-imidazol-1-yl)pyridin-2-yl)pyridazin-3-amine], for which the melting point lay within 170 to 172 °C. For the same molecule, half-maximal inhibition in the data set on Aβ42 (IC50) required 0.036 µM. `COc1nc(-c2nnc(N[C@@H](C)c3ccccc3)cc2C)ccc1-n1cnc(C)c1` [Example 28, (S)-6-(6-methoxy-5-(4-methyl-1H-imidazol-1-yl)pyridin-2-yl)-5-methyl-N-(1-phenylethyl)pyridazin-3-amine] gave a melting point of 140 to 143 °C. The molecule also displayed a half-maximal inhibitory concentration (IC50) with Aβ42 of 0.018 µM. As to `COc1nc(-c2cc(C)c(N[C@@H](C)c3ccccc3F)nn2)ccc1-n1cnc(C)c1` [Example 34, (S)—N-(1-(2-fluorophenyl)ethyl)-6-(6-methoxy-5-(4-methyl-1H-imidazol-1-yl)pyridin-2-yl)-4-methylpyridazin-3-amine], the IC50 in the data set with Aβ42 worked out at 0.0043 µM. In addition, the “Notch processing (NICD levels, Western blot)” value with Notch processing is “did not decrease the NICD levels at all concentrations studied; also recorded: not inhibit Notch processing”. As to `COc1nc(-c2cc(C)c(N[C@@H](C)c3ccc(F)cc3F)nn2)ccc1-n1cnc(C)c1` [Example 45, (S)—N-(1-(2,4-difluorophenyl)ethyl)-6-(6-methoxy-5-(4-methyl-1H-imidazol-1-yl)pyridin-2-yl)-4-methylpyridazin-3-amine], the IC50 with Aβ42 was found to be 0.0025 µM. The “Notch processing (NICD levels, Western blot)” value in the data set with Notch processing is recorded as “did not decrease the NICD levels at all concentrations studied; also recorded: not inhibit Notch processing”. Take `COc1nc(-c2cc(C)c(NCCc3ccc(F)cc3)nn2)ccc1-n1cnc(C)c1` [Example 50, N-(4-fluorophenethyl)-6-(6-methoxy-5-(4-methyl-1H-imidazol-1-yl)pyridin-2-yl)-4-methylpyridazin-3-amine]: the melting point was 204 to 206 °C. Further, in the data set on Aβ42, the concentration for half-maximal inhibition (IC50) turned out to be 0.038 µM.

`COc1nc(-c2cc(C)c(NC(C)C)nn2)ccc1-n1cnc(C)c1` [Example 65, N-isopropyl-6-(6-methoxy-5-(4-methyl-1H-imidazol-1-yl)pyridin-2-yl)-4-methylpyridazin-3-amine]: the melting point lay in the range of 228 to 229 °C. The molecule also displayed a half-inhibitory concentration (IC50) in the data set with Aβ42 of 0.188 µM. Taken in the same sequence, the figures for `COc1nc(-c2cc(C)c(NCCCc3ccc(F)cc3)nn2)ccc1-n1cnc(C)c1` [Example 73, N-(3-(4-fluorophenyl)propyl)-6-(6-methoxy-5-(4-methyl-1H-imidazol-1-yl)pyridin-2-yl)-4-methylpyridazin-3-amine] were 204 to 206 °C and 0.026 µM. As for `COc1nc(-c2cc(C)c(N[C@@H](C)c3ccc(F)cc3C(F)(F)F)nn2)ccc1-n1cnc(C)c1` [Example 82, (S)—N-(1-(4-fluoro-2-(trifluoromethyl)phenyl)ethyl)-6-(6-methoxy-5-(4-methyl-1H-imidazol-1-yl)pyridin-2-yl)-4-methylpyridazin-3-amine], half-maximal inhibition in the data set on Aβ42 (IC50) was put at 0.0035 µM.

In the data set with Aβ42, `COc1nc(-c2cc(C)c(N[C@@H]3C[C@H]3c3ccc(F)c(F)c3)nn2)ccc1-n1cnc(C)c1` [Example 83, N-((1R,2S)-2-(3,4-difluorophenyl)cyclopropyl)-6-(6-methoxy-5-(4-methyl-1H-imidazol-1-yl)pyridin-2-yl)-4-methylpyridazin-3-amine] came in with an IC50 of 0.027 µM. `CC[C@H](Nc1nnc(-c2ccc(-n3cnc(C)c3)c(OC)n2)cc1C)c1ccc(C#N)cc1` [Example 84, (S)-4-(1-((6-(6-methoxy-5-(4-methyl-1H-imidazol-1-yl)pyridin-2-yl)-4-methylpyridazin-3-yl)amino)propyl)benzonitrile] gave a half-maximal inhibitory concentration (IC50) with Aβ42 of 0.023 µM. As to `COc1nc(-c2cc(C)c(NC3CCC(F)(F)CC3)nn2)ccc1-n1cnc(C)c1` [Example 85, N-(4,4-difluorocyclohexyl)-6-(6-methoxy-5-(4-methyl-1H-imidazol-1-yl)pyridin-2-yl)-4-methyl pyridazin-3-amine], in the data set with Aβ42, inhibition was half-maximal at 0.07 µM (IC50). Turning to `CCC[C@H](Nc1nnc(-c2ccc(-n3cnc(C)c3)c(OC)n2)cc1C)c1ccccc1F` [Example 86, (S)—N-(1-(2-fluorophenyl)butyl)-6-(6-methoxy-5-(4-methyl-1H-imidazol-1-yl)pyridin-2-yl)-4-methylpyridazin-3-amine], the midpoint of inhibition in the data set on Aβ42, the IC50, lay at 0.0045 µM.

Molecule `COC[C@H](Nc1nnc(-c2ccc(-n3cnc(C)c3)c(OC)n2)cc1C)c1ccc(F)cc1` [Example 87, (R)—N-(1-(4-fluorophenyl)-2-methoxyethyl)-6-(6-methoxy-5-(4-methyl-1H-imidazol-1-yl)pyridin-2-yl)-4-methylpyridazin-3-amine] registered a concentration for half-maximal inhibition (IC50) in the data set with Aβ42 of 0.0115 µM. Regarding `CC[C@H](Nc1nnc(-c2ccc(-n3cnc(C)c3)c(OC)n2)cc1C)c1ccccc1F` [Example 88, (S)—N-(1-(2-fluorophenyl)propyl)-6-(6-methoxy-5-(4-methyl-1H-imidazol-1-yl)pyridin-2-yl)-4-methylpyridazin-3-amine], in the data set on Aβ42, 0.012 µM corresponded to half-maximal inhibition (IC50). On the same count and under the same terms, under `COc1nc(-c2cc(C)c(N[C@@H](C)c3cccc(C)c3C)nn2)ccc1-n1cnc(C)c1` [Example 100, (S)—N-(1-(2,3-dimethylphenyl)ethyl)-6-(6-methoxy-5-(4-methyl-1H-imidazol-1-yl)pyridin-2-yl)-4-methylpyridazin-3-amine] stands 0.004 µM; under `COc1nc(-c2cc(C)c(N[C@@H](C)c3cccc(C(F)(F)F)c3F)nn2)ccc1-n1cnc(C)c1` [Example 101, (S)—N-(1-(2-fluoro-3-(trifluoromethyl)phenyl)ethyl)-6-(6-methoxy-5-(4-methyl-1H-imidazol-1-yl)pyridin-2-yl)-4-methylpyridazin-3-amine], 0.005 µM. For `COc1nc(-c2cc(C)c(N[C@H](c3ccc(F)cc3)C(C)(C)O)nn2)ccc1-n1cnc(C)c1` [Example 102, (R)-1-(4-fluorophenyl)-1-((6-(6-methoxy-5-(4-methyl-1H-imidazol-1-yl)pyridin-2-yl)-4-methylpyridazin-3-yl)amino)-2-methylpropan-2-ol], the IC50 in the data set on Aβ42 was found to be 0.006 µM. `COc1nc(-c2cc(C)c(N[C@H](C)c3ccc(F)cc3Cl)nn2)ccc1-n1cnc(C)c1` [Example 103, (R)—N-(1-(2-chloro-4-fluorophenyl)ethyl)-6-(6-methoxy-5-(4-methyl-1H-imidazol-1-yl)pyridin-2-yl)-4-methylpyridazin-3-amine] gave an IC50 with Aβ42 of 0.013 µM.
